# Measurements from patent publication US12102705B2, “Peptides having inhibitory activity on muscarinic receptor M3” (AZIENDE CHIMICHE RIUNITE ANGELINI FRANCESCO—A.C.R.A.F. …, priority 2018, dated 2024).
# pIC50: −log10 of the molar value. Peptide text beside a SMILES is read from it. * marks the point of attachment. Palmitoyl = CCCCCCCCCCCCCCCC(=O)*
# How the values were obtained:
# [1] = tested on: sweating induced by pilocarpine; experiment: Antiperspirant effect on chronic administration, pilocarpine-induced mouse model of sweat secretion; format: in vivo, C57BL6/Rcc male mice; settings: during 4 weeks treatment, 10 and 100 μg/paw
# Description: This example evaluated chronic effects of peptide of invention Seq. ID No. 2, palmitoylated form, in an in vivo sweating model. This model was established using pilocarpine, a non-selective agonist of muscarinic receptors, in 11-weeks old C57BL6/Rcc male mice. Test compound was locally administered three times per week for 4 weeks (Treatment). Sweat was induced by intraplantar (i.pl) injection of pilocarpine (3 μg/paw) in the right hind paw (Sweating) on weeks 1, 2 and 4 according to the table H.
# Test compound is the peptide of the invention having the following sequence (Sequence ID No. 2): • Palm-WMRLK-NH2
# Test compound was injected i.pl. on the right hind paw (1, 10 and 100 μg in). Vehicle injected was saline solution.
# (§1) Sweating was monitored through amylase activity detection on skin surface using iodine/starch reaction. Dark sweating drops were quantified after 5 minutes induction counting number of drops per paw in each condition. Sample n=5-6 individuals per group. Data are expressed as mean±standard error of the mean (SEM). Raw data was normalized as percentage respect to non-injected stimulated individuals (Control, 100%). Statistical analysis was one-way ANOVA followed by Dunnett's post-hoc multiple comparison test comparing each condition with the corresponding control group, ****p<0.0001 ***p<0.001 **p<0.01, *p<0.05
# [2] = target: T1, human muscarinic receptor M3 (Homo sapiens, UniProt P20309); experiment: Time-dependent inhibition of M3 activity, Fluo-4 NW calcium fluorescence; format: cell-based; settings: peptide 50 μM, read-out: % Inhibition hM3 receptor activity
# T1 construct: expressed in transfected cells; cultured in Ham's F-12 medium
# T1 sequence (P20309 whole entry): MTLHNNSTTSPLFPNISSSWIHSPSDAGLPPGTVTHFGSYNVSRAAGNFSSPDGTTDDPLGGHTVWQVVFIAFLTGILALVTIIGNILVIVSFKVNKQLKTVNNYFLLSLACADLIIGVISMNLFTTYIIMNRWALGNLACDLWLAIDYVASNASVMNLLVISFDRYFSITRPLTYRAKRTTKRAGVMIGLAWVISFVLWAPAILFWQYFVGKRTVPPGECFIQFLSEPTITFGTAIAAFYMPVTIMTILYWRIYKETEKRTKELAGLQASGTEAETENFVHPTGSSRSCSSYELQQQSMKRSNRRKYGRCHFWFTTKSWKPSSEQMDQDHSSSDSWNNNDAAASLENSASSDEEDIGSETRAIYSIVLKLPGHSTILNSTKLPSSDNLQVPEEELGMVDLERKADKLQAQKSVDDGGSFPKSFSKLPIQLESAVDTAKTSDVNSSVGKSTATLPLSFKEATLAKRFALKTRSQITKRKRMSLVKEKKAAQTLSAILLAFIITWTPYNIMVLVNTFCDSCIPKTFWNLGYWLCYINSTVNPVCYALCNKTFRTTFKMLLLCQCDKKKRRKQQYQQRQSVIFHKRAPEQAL
# Description: Peptides of invention were designed to target the intracellular region of M3. Therefore, minimum time required to detect inhibitory effect on M3 activity was evaluated. For this purpose, inhibitory effect of peptides Seq. […] Epithelial stable cell line constitutively expressing human muscarinic receptor M3 was used to assess peptides activity. Cells were seeded in 96-well plates at 50% cell confluence in 100 μL of complete Ham's F-12 medium. After 24 hours, medium was removed and cells were incubated with 90 μL/well of Fluo-4 NW (Invitrogen) fluorescent calcium probe assay buffer containing probenecid, following manufacturer's instructions at 37° C. in a CO2 incubator. Peptides (50 μM), vehicle and atropine were incubated either with the probe (1 hour pre-incubation) or during fluorescence reading (direct effect). Afterwards, M3 activity was recorded for 20 cycles and direct effect peptides were added on cycle 3 after baseline assessment. Acetylcholine was added on cycle 13. Therefore, direct effect of peptides was monitored for 25 minutes. Inhibition values of M3 activity were calculated as percentages by considering maximum fluorescence corresponding to vehicle or non-treated cells acetylcholine-M3 activation and minimum as non-stimulated cells. Table E details inhibition values of M3 activity inhibition obtained for the peptides of invention.
# [3] = target: T1, human muscarinic receptor M3; experiment: Inhibition of M3-acetylcholine activation, Fluo-4 NW calcium fluorescence; format: cell-based; settings: 50 min, 50 min incubation, 10 nM acetylcholine
# Description: (§2) Epithelial stable cell line constitutively expressing human muscarinic receptor M3 was used to assess peptides activity. Cells were seeded in 96-well plates at 50% cell confluence in 100 μL of complete Ham's F-12 medium. After 24 hours, medium was removed and cells were incubated with 90 μL/well of a solution of the peptides of the invention at 100, 50 or 10 μM or DMSO as vehicle. Peptides were dissolved in Fluo-4 NW (Invitrogen) fluorescent calcium probe assay buffer containing Probenecid, following manufacturer's instructions for 50 min at 37° C. in a CO2 incubator. Afterwards, M3 activity was determined by reading the fluorescence in a FLUOstar Galaxy reader (BMG LabTechnologies) using 485 nm filter for excitation and 520 nm for emission, recording signal before and after M3 activation with 10 nM acetylcholine. Fluorescence measurements were normalized to acetylcholine maximum fluorescence signal in vehicle treated cells. Atropine (100 nM) was used as positive control for inhibition. Inhibition values of M3 activity were calculated as percentages by considering maximum fluorescence corresponding to acetylcholine-M3 activation and minimum as non-stimulated cells. Table D details inhibition values of M3 activity inhibition obtained for the peptides of invention.
# [4] = tested on: sweating induced by pilocarpine; experiment: Antiperspirant effect on acute administration, pilocarpine-induced mouse model of sweat secretion; format: in vivo, C57BL6/Rcc male mice; settings: at 10, 30 and 100 μg
# Description: This example evaluated acute effects of the peptide of invention Seq. ID No 2, pamitoylated form, in an in vivo sweating model induced by pilocarpine. This model was established using pilocarpine, a non-selective agonist of muscarinic receptors, in 11-weeks old C57BL6/Rcc male mice.
# Test compound is the peptide of the invention having the following sequence (Sequence ID No. 2): • Palm-WMMRLK-NH2
# Test compound was injected i.pl. on the right hind paw (10, 30 and 100 μg) 30 min before sweating stimulation. Vehicle was saline solution.
# as §1, with “condition.” for “condition. Sample n=5-6 individuals per group.”, “100%) and saline-injected non-stimulated individuals (Vehicle, 0%).” for “100%).”
# [5] = target: T1, human muscarinic receptor M3; experiment: Dose-response inhibitory effect on M3 activity (IC50); format: cell-based
# Description: as §2
# Characterization of Seq. ID No. 1, 3-8 peptides efficiency was obtained by calculating half maximal inhibitory concentration (IC50). For this purpose, experimental procedure regarding cell culture and fluorescent calcium probe assay was followed as described on Example 2. Peptides were assessed at concentrations between 0.1 and 100 μM and incubated for 1 hour together with Fluo-4 NW probe. Afterwards, M3 activity was determined by reading the fluorescence in a FLUOstar Galaxy reader (BMG LabTechnologies) using 485 nm filter for excitation and 520 nm for emission, recording signal before and after M3 activation with acetylcholine. Fluorescence measurements were standardized with regard to the maximum fluorescence signal detected with acetylcholine stimulation in vehicle treated cells. Inhibition values of M3 activity were calculated as percentages by considering maximum fluorescence corresponding to acetylcholine-M3 activation and minimum as non-stimulated cells. Percentage inhibition data was fitted to a sigmoidal curve to obtain IC50. Table F details inhibition values for IC50
compound,measurement,setting,value
"CCCCCCCCCCCCCCCC(=O)N[C@@H](Cc1c[nH]c2ccccc12)C(=O)N[C@@H](CCSC)C(=O)N[C@@H](CCCNC(=N)N)C(=O)N[C@@H](CC(C)C)C(=O)N[C@@H](CCCCN)C(N)=O [Seq. ID No. 2 Palmitoyl, Palm-WMRLK-NH2] (Palmitoyl-WMRLK-NH2)",sweating inhibition,[1],significant sweating inhibition
same,inhibition at 50 µM,"[2]; 25 min, 25 minutes (direct effect)",25.5%
same,inhibition at 50 µM,[2]; 60 minutes (1 hour pre-incubation),81%
same,inhibition at 10 µM,[3]; peptide 10 μM,62.5%
same,inhibition at 50 µM,[3]; peptide 50 μM,85.4%
same,inhibition at 100 µM,[3]; peptide 100 μM,88.6%
same,reduction of sweating,[4],significantly reduced sweating
same,pIC50,[5],5.14
